Reference: ChEMBL document CHEMBL1201862, “PubChem BioAssay data set” (2004)
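Cells were grown in 96-well plates and exposed to each compound for 48 hours at five concentrations; endpoints were interpolated linearly between bracketing concentrations, or set to the highest concentration if not reached. Here, GI50 denotes the concentration required for 50% inhibition of growth.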 Active and inactive are the calls of the source. Rule as the data show it: active = GI50 up to about 1.1 µM and inactive = higher.

Experiments:
Test in all cases: growth of human tumour cells (NCI), 48 h
786-0 = test system: 786-0
A498 = test system: A498
A549 = test system: A549
ACHN = test system: ACHN
BT-549 = test system: BT-549
CAKI-1 = test system: CAKI-1
CCRF-CEM = test system: CCRF-CEM
COLO 205 = test system: COLO 205
DU-145 = test system: DU-145
EKVX = test system: EKVX
HCT-116 = test system: HCT-116
HCT-15 = test system: HCT-15
HL-60 = test system: HL-60
HOP-62 = test system: HOP-62
HOP-92 = test system: HOP-92
HT-29 = test system: HT-29
Hs-578T = test system: Hs-578T
IGROV-1 = test system: IGROV-1
K562 = test system: K562
KM12 = test system: KM12
LOX IMVI = test system: LOX IMVI
M14 = test system: M14
MCF7 = test system: MCF7
MDA-MB-231 = test system: MDA-MB-231
MDA-MB-435 = test system: MDA-MB-435
MDA-N = test system: MDA-N
Malme-3M = test system: Malme-3M
NCI-H226 = test system: NCI-H226
NCI-H23 = test system: NCI-H23
NCI-H460 = test system: NCI-H460
NCI-H522 = test system: NCI-H522
NCI/ADR-RES = test system: NCI/ADR-RES
OVCAR-3 = test system: OVCAR-3
OVCAR-4 = test system: OVCAR-4
OVCAR-5 = test system: OVCAR-5
OVCAR-8 = test system: OVCAR-8
RPMI-8226 = test system: RPMI-8226
RXF 393 = test system: RXF 393
SF-268 = test system: SF-268
SF-295 = test system: SF-295
SF-539 = test system: SF-539
SK-MEL-2 = test system: SK-MEL-2
SK-MEL-5 = test system: SK-MEL-5
SK-OV-3 = test system: SK-OV-3
SN12C = test system: SN12C
SNB-19 = test system: SNB-19
SNB-75 = test system: SNB-75
SR = test system: SR
SW-620 = test system: SW-620
T47D = test system: T47D
TK-10 = test system: TK-10
UACC-257 = test system: UACC-257
UACC-62 = test system: UACC-62
UO-31 = test system: UO-31
HCC 2998 = test system: HCC 2998
MOLT-4 = test system: MOLT-4
PC-3 = test system: PC-3
SK-MEL-28 = test system: SK-MEL-28
U-251 = test system: U-251

**Q.** Which results are given for `CN1/C(=C/C=C/C=C/C=C2C(=O)c3ccccc3C2=O)C(C)(C)c2ccccc21`?
**A.** GI50 (786-0): > 100 µM (inactive); GI50 (A498): 23.8 µM (inactive); GI50 (A549): 7 µM (inactive); GI50 (ACHN): 25.8 µM (inactive); GI50 (BT-549): 24 µM (inactive); GI50 (CAKI-1): 44 µM (inactive); GI50 (CCRF-CEM): > 100 µM (inactive); GI50 (COLO 205): 26.6 µM (inactive); GI50 (DU-145): 43.4 µM (inactive); GI50 (EKVX): 30.8 µM (inactive); GI50 (HCT-116): > 100 µM (inactive); GI50 (HCT-15): 40.2 µM; GI50 (HL-60): 36.6 µM (inactive); GI50 (HOP-62): > 100 µM (inactive); GI50 (HOP-92): 15.7 µM (inactive); GI50 (HT-29): > 100 µM (inactive); GI50 (Hs-578T): 29.9 µM (inactive); GI50 (IGROV-1): 39.6 µM (inactive); GI50 (K562): 13.3 µM (inactive); GI50 (KM12): 76.9 µM (inactive); GI50 (LOX IMVI): 40.3 µM (inactive); GI50 (M14): 37.5 µM (inactive); GI50 (MCF7): 31.3 µM (inactive); GI50 (MDA-MB-231): 10.3 µM (inactive); GI50 (MDA-MB-435): 54.5 µM (inactive); GI50 (MDA-N): 35.6 µM (inactive); GI50 (Malme-3M): 29.4 µM (inactive); GI50 (NCI-H226): 51.9 µM (inactive); GI50 (NCI-H23): 41 µM (inactive); GI50 (NCI-H460): 53.5 µM (inactive); GI50 (NCI-H522): 28.6 µM (inactive); GI50 (NCI/ADR-RES): 76.2 µM (inactive); GI50 (OVCAR-3): 20 µM (inactive); GI50 (OVCAR-4): 75.3 µM (inactive); GI50 (OVCAR-5): 33 µM (inactive); GI50 (OVCAR-8): 44 µM (inactive); GI50 (RPMI-8226): 6.55 µM (inactive); GI50 (RXF 393): 24.2 µM (inactive); GI50 (SF-268): 43.3 µM (inactive); GI50 (SF-295): 35.5 µM (inactive); GI50 (SF-539): 26.1 µM (inactive); GI50 (SK-MEL-2): 20.3 µM (inactive); GI50 (SK-MEL-5): 18.5 µM (inactive); GI50 (SK-OV-3): 39.4 µM (inactive); GI50 (SN12C): > 100 µM (inactive); GI50 (SNB-19): > 100 µM (inactive); GI50 (SNB-75): 48.6 µM (inactive); GI50 (SR): > 100 µM (inactive); GI50 (SW-620): > 100 µM (inactive); GI50 (T47D): 6.76 µM (inactive); GI50 (TK-10): > 100 µM (inactive); GI50 (UACC-257): 17.5 µM (inactive); GI50 (UACC-62): 17.7 µM (inactive); GI50 (UO-31): 37.2 µM (inactive)

**Q.** For `O=C(c1ccccc1)C1C(C(=O)c2ccccc2)N1Cc1ccccc1` (configuration not stated), which GI50 (786-0) is on record?
**A.** 34.8 µM (inactive)

**Q.** What about the GI50 (A498) of the same compound?
**A.** 33 µM (inactive)

**Q.** And the GI50 (A549)?
**A.** 24.2 µM (inactive)

**Q.** What about the GI50 (ACHN) of the same compound?
**A.** 41.9 µM (inactive)

**Q.** And the GI50 (BT-549)?
**A.** 25.9 µM (inactive)

**Q.** What about the GI50 (CAKI-1) of the same compound?
**A.** 75.3 µM (inactive)

**Q.** And the GI50 (CCRF-CEM)?
**A.** 36.6 µM (inactive)

**Q.** And the GI50 (COLO 205)?
**A.** 24.3 µM (inactive)

**Q.** And the GI50 (DU-145)?
**A.** 24.4 µM (inactive)

**Q.** What about the GI50 (EKVX) of the same compound?
**A.** 28.3 µM (inactive)

**Q.** And the GI50 (HCC 2998)?
**A.** 48.3 µM (inactive)

**Q.** What about the GI50 (HCT-15) of the same compound?
**A.** 57.3 µM

**Q.** And the GI50 (HOP-62)?
**A.** 30.5 µM (inactive)

**Q.** And the GI50 (HOP-92)?
**A.** 26 µM (inactive)

**Q.** And the GI50 (HT-29)?
**A.** 36.5 µM (inactive)

**Q.** And the GI50 (Hs-578T)?
**A.** 32.3 µM (inactive)

**Q.** What about the GI50 (IGROV-1) of the same compound?
**A.** 49.8 µM (inactive)

**Q.** And the GI50 (K562)?
**A.** 27.9 µM (inactive)

**Q.** And the GI50 (KM12)?
**A.** 27.8 µM (inactive)

**Q.** What about the GI50 (LOX IMVI) of the same compound?
**A.** 31.2 µM (inactive)

**Q.** What about the GI50 (M14) of the same compound?
**A.** 28.6 µM (inactive)

**Q.** What about the GI50 (MDA-MB-231) of the same compound?
**A.** 26.1 µM (inactive)

**Q.** What about the GI50 (MDA-MB-435) of the same compound?
**A.** 21.8 µM (inactive)

**Q.** And the GI50 (MDA-N)?
**A.** 13.5 µM (inactive)

**Q.** And the GI50 (MOLT-4)?
**A.** 40.6 µM (inactive)

**Q.** What about the GI50 (Malme-3M) of the same compound?
**A.** 34.4 µM (inactive)

**Q.** And the GI50 (NCI-H226)?
**A.** 32.6 µM (inactive)

**Q.** What about the GI50 (NCI-H23) of the same compound?
**A.** 37.8 µM (inactive)

**Q.** And the GI50 (NCI-H460)?
**A.** 29.2 µM (inactive)

**Q.** What about the GI50 (NCI-H522) of the same compound?
**A.** 24.5 µM (inactive)

**Q.** What about the GI50 (NCI/ADR-RES) of the same compound?
**A.** 33.5 µM (inactive)

**Q.** And the GI50 (OVCAR-3)?
**A.** 27.8 µM (inactive)

**Q.** And the GI50 (OVCAR-4)?
**A.** 39.9 µM (inactive)

**Q.** What about the GI50 (OVCAR-5) of the same compound?
**A.** > 100 µM (inactive)

**Q.** And the GI50 (OVCAR-8)?
**A.** 32.4 µM (inactive)

**Q.** What about the GI50 (PC-3) of the same compound?
**A.** 23.4 µM (inactive)

**Q.** And the GI50 (RPMI-8226)?
**A.** 48.9 µM (inactive)

**Q.** What about the GI50 (SF-268) of the same compound?
**A.** 37.1 µM (inactive)

**Q.** What about the GI50 (SF-295) of the same compound?
**A.** 39.7 µM (inactive)

**Q.** And the GI50 (SK-MEL-28)?
**A.** 32.7 µM (inactive)

**Q.** What about the GI50 (SK-MEL-2) of the same compound?
**A.** 17.5 µM (inactive)

**Q.** What about the GI50 (SK-MEL-5) of the same compound?
**A.** 20 µM (inactive)

**Q.** And the GI50 (SK-OV-3)?
**A.** 27.5 µM (inactive)

**Q.** And the GI50 (SN12C)?
**A.** 21.4 µM (inactive)

**Q.** What about the GI50 (SNB-19) of the same compound?
**A.** 37 µM (inactive)

**Q.** And the GI50 (SNB-75)?
**A.** 13.9 µM (inactive)

**Q.** And the GI50 (SW-620)?
**A.** 44.1 µM (inactive)

**Q.** What about the GI50 (T47D) of the same compound?
**A.** 11.6 µM (inactive)

**Q.** What about the GI50 (TK-10) of the same compound?
**A.** 46.9 µM (inactive)

**Q.** And the GI50 (U-251)?
**A.** 27.6 µM (inactive)

**Q.** And the GI50 (UACC-257)?
**A.** 38.6 µM (inactive)

**Q.** What about the GI50 (UACC-62) of the same compound?
**A.** 15.7 µM (inactive)

**Q.** What about the GI50 (UO-31) of the same compound?
**A.** 36.8 µM (inactive)
